We go through 1 compound from patent publication US20250381165A1, “Method of Use for Benzofuran Compounds” (Tampa Bay Research Institute, Inc., priority 2024, published 2025).

This data set relates to freshly isolated murine splenocytes. Put plainly: CellTiter-Glo cell viability, primary splenocytes. It is filed as cell-based. Here is the method: BzFβ was then examined for its effect on the viability of several murine and human cell lines and primary murine splenocytes. The cytotoxicity of BzFβ was assessed using the CellTiter-Glo […] assay system according to manufacturer's instructions to determine BzFβ's effect on the viability of several murine and human cell lines and primary murine splenocytes.
Six- to ten-week-old female C57BL/6NCrl mice (Charles River Laboratories, Wilmington, MA; cat. no. 027) were maintained in accord with the NIH Guide for the Care and Use of Laboratory Animals. Mice were maintained in an INOVIVE individually ventilated cage system with 3 mice per cage containing 100% virgin wood pulp bedding (Harlan Teklad™, Inotiv Inc., West Lafayette, IN; cat. no. 7099). Water and food (Harlan Teklad™, Inotiv Inc., West Lafayette, IN; cat. no. 8640) were available ad libitum. […] The cell count was determined using the MUSE cell viability kit (MCH600103) and MUSE Cell Analyzer (Luminex Corp, Austin TX). […]
The cytotoxicity of BzFβ was assessed using the CellTiter-Glo cell […] viability assay system […] cat. no. […] CellTiter-Glo was added 1:1 in the media and the level of chemiluminescence was measured using luminescence at wavelengths of 200 nm to 700 nm through a photomultiplier on BioTek's Synergy HTX multimode microplate reader. […]
Background: ATP-based viability assays read luminescence as a measure of living cells.

As usually defined, the IC50 is the point on the concentration scale where inhibition reaches its midpoint.

Turning to `O=C(O)/C=C/c1ccc2occc2c1` [BzFβ, (2E)-3-(1-benzofuran-5-yl)prop-2-enoic acid], the 50% inhibitory concentration (IC50) (Mus musculus, Splenocyte, freshly isolated murine splenocytes, CellTiter-Glo) was found to be 402 µM. Further, the “viability of primary murine splenocytes” value (concentrations below 50 µg/mL) is given as “minimally affected”.
